Assay results as given in patent publication US11331299B2, “Medicinal use of serrulatane diterpenes” (The University of Sydney, priority 2016, dated 2022).
Like-named read-outs stand apart in the source and are kept apart here. One block for each compound: values may come before it.

Tests used:
[1] = target: T1, Sirtuin 7 (h) (Homo sapiens, UniProt Q9NRC8); assay: Epigenetic enzyme assay, Sirtuins; type: biochemical; settings: Table 10; read-out: Reference IC50
T1 sequence (Q9NRC8 1-400): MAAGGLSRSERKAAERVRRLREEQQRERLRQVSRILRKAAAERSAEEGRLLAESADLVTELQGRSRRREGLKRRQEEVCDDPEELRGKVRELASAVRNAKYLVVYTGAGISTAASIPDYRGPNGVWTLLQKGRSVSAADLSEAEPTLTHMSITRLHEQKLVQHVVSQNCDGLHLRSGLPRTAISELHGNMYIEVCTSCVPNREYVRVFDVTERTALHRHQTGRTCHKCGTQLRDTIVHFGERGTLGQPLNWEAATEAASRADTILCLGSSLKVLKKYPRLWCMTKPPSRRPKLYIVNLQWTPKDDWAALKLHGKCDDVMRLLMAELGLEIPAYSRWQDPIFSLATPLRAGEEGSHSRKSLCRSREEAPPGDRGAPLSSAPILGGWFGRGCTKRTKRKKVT

[2] = target: T1, Sirtuin 7 (h); settings: reference compound; fluorogenic HDAC 25 μM; 60 min/37° C.; cited from earlier work
[3] = target: T2, ASH1L (h) bromodomain (Homo sapiens, UniProt Q9NR48); settings: ligand biotin-H4 di acetyl Lys 5/8 75 nM; 30 min/RT; AlphaScreen; read-out: Reference IC50; cited from earlier work
T2 construct: ASH1L (h) bromodomain

[4] = target: T2, ASH1L (h) bromodomain; assay: Epigenetic binding assay, Bromodomain
[5] = target: T3, PCAF (h) bromodomain (Homo sapiens, UniProt Q92831); assay: Epigenetic binding assay, Bromodomain; settings: Table 4; read-out: Reference IC50
T3 construct: Bromodomain
T3 sequence (Q92831 723-827 limits assumed): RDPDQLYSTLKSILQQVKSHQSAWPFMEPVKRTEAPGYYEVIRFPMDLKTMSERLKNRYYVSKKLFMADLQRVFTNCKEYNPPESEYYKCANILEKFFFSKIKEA

[6] = target: T3, PCAF (h) bromodomain; settings: ligand biotin-H4 tetra acetyl Lys 5/8/12/16 100 nM; 30 min/RT; AlphaScreen; read-out: Reference IC50; cited from earlier work
[7] = target: T4, ATAD2A (h) bromodomain (Homo sapiens, UniProt Q6PL18); settings: ligand biotin-H4 tetra acetyl Lys 5/8/12/16 100 nM; 30 min/RT; AlphaScreen; read-out: Reference IC50; cited from earlier work
T4 construct: Bromodomain
T4 sequence (Q6PL18 980-1092 limits assumed): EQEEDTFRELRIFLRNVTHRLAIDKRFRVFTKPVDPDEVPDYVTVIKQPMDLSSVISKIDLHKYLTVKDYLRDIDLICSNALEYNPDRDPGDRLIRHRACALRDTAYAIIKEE

[8] = target: T5, KAT2A (GCN5L2) (h) bromodomain (Homo sapiens, UniProt Q92830); assay: Epigenetic binding assay, Bromodomain; settings: Table 4; read-out: Reference IC50
T5 construct: Bromodomain
T5 sequence (Q92830 728-832 limits assumed): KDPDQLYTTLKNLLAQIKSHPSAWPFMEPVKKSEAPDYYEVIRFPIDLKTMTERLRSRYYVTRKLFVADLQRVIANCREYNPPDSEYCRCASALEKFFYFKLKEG

[9] = target: T4, ATAD2A (h) bromodomain; assay: Epigenetic binding assay, Bromodomain; settings: Table 4; read-out: Reference IC50
[10] = target: T5, KAT2A (GCN5L2) (h) bromodomain; settings: ligand biotin-H4 tetra acetyl Lys 5/8/12/16 30 nM; 15 min/RT; AlphaScreen; read-out: Reference IC50; cited from earlier work
[11] = target: T6, USP 14 (h) (Homo sapiens, UniProt P54578); assay: Epigenetic enzyme assay, Ubiquitin modifying enzymes; type: biochemical; settings: Table 10; read-out: Reference IC50
T6 sequence (P54578 whole entry): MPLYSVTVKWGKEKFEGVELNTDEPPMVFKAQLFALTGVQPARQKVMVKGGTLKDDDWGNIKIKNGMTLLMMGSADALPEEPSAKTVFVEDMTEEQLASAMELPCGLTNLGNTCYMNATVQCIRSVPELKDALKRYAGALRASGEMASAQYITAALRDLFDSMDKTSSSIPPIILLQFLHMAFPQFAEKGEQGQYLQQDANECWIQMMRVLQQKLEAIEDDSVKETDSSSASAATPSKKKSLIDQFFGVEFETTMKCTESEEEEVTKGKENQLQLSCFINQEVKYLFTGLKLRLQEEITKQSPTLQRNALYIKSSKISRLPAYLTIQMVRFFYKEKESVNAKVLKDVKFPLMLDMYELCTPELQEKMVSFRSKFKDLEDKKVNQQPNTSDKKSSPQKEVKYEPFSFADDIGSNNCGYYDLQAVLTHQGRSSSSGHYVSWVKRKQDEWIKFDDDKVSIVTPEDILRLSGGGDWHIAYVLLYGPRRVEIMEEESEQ

[12] = target: T7, USP 21 (h) (Homo sapiens, UniProt Q9UK80); assay: as above; type: biochemical; settings: Table 10; read-out: Reference IC50
T7 sequence (Q9UK80 1-565): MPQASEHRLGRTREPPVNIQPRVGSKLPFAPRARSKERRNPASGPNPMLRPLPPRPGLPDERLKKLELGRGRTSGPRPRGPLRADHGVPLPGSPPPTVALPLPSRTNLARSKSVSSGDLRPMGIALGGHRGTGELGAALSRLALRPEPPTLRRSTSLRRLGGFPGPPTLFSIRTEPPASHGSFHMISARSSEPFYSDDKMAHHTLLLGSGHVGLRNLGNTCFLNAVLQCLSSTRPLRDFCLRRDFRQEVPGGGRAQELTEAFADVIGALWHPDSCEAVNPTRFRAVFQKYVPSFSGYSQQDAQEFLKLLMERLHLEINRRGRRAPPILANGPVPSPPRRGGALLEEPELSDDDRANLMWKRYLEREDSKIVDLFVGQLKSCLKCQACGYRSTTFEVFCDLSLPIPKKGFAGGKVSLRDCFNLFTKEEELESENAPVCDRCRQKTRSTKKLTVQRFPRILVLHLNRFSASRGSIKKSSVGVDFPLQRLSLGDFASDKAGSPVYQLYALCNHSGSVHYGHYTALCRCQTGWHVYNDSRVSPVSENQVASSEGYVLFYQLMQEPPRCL

[13] = target: T8, BAP1 (h) (Homo sapiens, UniProt Q92560); assay: as above; type: biochemical; settings: Table 10; read-out: Reference IC50
T8 sequence (Q92560 1-729): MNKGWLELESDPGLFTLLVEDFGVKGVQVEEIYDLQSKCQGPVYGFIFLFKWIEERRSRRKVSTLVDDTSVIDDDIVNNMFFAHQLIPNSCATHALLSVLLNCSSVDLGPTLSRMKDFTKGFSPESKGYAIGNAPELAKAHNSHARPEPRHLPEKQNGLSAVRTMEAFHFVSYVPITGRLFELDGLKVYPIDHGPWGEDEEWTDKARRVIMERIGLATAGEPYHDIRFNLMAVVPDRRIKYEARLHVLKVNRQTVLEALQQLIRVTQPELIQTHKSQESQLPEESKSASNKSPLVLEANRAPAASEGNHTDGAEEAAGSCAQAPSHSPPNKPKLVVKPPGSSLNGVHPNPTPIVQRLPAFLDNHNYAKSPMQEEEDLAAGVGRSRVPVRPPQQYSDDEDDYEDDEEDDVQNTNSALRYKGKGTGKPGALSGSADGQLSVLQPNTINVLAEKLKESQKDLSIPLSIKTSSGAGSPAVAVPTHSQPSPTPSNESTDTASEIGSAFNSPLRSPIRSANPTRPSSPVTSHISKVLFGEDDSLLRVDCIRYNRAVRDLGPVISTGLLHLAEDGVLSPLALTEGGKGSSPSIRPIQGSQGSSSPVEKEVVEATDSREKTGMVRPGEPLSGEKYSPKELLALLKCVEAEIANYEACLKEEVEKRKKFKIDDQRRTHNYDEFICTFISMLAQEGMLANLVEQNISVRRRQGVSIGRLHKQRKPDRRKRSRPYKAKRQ

[14] = target: T9, USP 7 (h) (Homo sapiens, UniProt Q93009); assay: as above; type: biochemical; settings: Table 10; read-out: Reference IC50
T9 sequence (Q93009 whole entry): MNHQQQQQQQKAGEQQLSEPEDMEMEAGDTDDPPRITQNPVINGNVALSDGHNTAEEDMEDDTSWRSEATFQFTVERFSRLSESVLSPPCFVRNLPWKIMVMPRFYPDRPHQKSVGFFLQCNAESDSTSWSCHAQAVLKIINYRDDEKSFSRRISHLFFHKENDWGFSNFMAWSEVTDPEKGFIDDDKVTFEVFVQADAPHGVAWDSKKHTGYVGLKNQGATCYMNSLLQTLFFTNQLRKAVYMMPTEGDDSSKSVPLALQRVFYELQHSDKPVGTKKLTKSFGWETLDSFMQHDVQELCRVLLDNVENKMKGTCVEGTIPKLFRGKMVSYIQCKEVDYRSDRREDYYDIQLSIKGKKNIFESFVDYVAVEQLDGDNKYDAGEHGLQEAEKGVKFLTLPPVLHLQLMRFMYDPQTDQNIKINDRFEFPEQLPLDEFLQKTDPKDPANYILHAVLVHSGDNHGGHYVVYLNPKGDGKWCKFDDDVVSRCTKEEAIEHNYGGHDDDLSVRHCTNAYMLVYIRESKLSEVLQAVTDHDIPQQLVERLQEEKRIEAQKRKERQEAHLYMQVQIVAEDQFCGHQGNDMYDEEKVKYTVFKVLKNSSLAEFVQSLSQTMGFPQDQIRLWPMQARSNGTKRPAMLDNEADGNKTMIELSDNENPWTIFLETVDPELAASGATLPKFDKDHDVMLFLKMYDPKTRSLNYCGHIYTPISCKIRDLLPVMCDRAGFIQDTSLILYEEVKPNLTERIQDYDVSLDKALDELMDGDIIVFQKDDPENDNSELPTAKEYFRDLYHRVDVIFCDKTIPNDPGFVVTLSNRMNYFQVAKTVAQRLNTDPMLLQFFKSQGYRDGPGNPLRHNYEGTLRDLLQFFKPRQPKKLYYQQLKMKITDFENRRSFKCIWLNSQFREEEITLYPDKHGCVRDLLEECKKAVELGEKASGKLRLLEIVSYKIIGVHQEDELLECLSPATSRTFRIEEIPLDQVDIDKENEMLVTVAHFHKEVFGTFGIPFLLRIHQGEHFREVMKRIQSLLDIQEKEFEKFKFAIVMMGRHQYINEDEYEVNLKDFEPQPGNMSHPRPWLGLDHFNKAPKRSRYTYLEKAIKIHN

[15] = target: T7, USP 21 (h); settings: reference compound; LanthaScreen DUB substrate 10 nM, 15 min/RT; cited from earlier work
[16] = target: USP 10 (h) (Homo sapiens, UniProt Q14694); settings: reference compound; LanthaScreen DUB substrate 10 nM, 60 min/22° C.; cited from earlier work
USP 10 (h), sequence (Q14694 whole entry): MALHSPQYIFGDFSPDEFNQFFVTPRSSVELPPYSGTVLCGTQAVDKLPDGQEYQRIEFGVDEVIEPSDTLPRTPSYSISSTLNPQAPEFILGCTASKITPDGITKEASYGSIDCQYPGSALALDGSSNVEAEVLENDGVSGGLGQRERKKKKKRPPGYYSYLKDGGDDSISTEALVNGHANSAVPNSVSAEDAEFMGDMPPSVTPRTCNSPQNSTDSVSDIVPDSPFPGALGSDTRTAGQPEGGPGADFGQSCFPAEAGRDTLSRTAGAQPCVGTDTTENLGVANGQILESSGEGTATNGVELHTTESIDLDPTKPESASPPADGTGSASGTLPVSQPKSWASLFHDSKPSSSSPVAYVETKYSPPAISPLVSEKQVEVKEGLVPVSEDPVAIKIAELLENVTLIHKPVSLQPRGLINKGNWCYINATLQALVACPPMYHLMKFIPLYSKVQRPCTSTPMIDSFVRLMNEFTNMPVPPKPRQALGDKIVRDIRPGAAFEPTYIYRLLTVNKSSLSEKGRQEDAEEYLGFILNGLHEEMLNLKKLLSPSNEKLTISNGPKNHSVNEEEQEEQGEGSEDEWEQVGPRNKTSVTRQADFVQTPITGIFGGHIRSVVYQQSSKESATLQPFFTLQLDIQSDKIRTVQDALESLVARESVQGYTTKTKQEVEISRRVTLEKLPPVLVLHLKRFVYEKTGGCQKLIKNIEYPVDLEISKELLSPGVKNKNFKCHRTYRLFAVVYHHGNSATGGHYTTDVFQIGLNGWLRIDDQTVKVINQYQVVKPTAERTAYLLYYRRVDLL

[17] = target: T6, USP 14 (h); settings: reference compound; LanthaScreen DUB substrate 10 nM, 240 min/RT; cited from earlier work
[18] = target: T8, BAP1 (h); settings: reference compound; LanthaScreen DUB substrate 20 nM, 180 min/RT; cited from earlier work
[19] = target: T9, USP 7 (h); settings: reference compound; LanthaScreen DUB substrate 10 nM, 60 min/RT; cited from earlier work

Compound: O=C1c2ccccc2C(=O)c2c(NCCc3ccc(O)cc3)ccc(NCCc3ccc(O)cc3)c21 [JFD00244, reference compound]
IC50 [1]: 1300 µM
IC50 [2]: 1300 µM

Compound: Cc1sc2c(c1C)C(c1ccc(Cl)cc1)=N[C@@H](CC(=O)OC(C)(C)C)c1nnc(C)n1-2 [JQ-1, reference compound]
IC50 [3]: 13.8 µM
IC50 ([4]; Table 4, read-out: Reference IC50): 13.8 µM
IC50 ([4]; Table 9, inhibition/concentration-response curve, read-out: IC50): 8.7 µM
IC50 [5]: 12 µM
IC50 [6]: 12 µM
IC50 [7]: 70 µM
IC50 [8]: 45 µM
IC50 [9]: 70 µM
IC50 [10]: 45 µM

IC50 [11]: 0.004 µM
IC50 [12]: 0.17 µM
IC50 [13]: 0.23 µM
IC50 [14]: 0.11 µM
Compound: Ubiquitin Aldehyde
IC50 [15]: 0.17 µM
IC50 [16]: 0.23 µM
IC50 [17]: 0.004 µM
IC50 [18]: 0.23 µM
IC50 [19]: 0.11 µM
